Assay: xn = mol fraction of the nth substance listed
Settings: 101 kPa, Liquid; for viscosity: Concentric cylinders viscometry; for speed of sound: Single path-length method; for mass density: Vibrating tube method

CCCCCCCCCCCCCCCC [hexadecane] + CCCCO
Settings	mass density [kg/m3]	speed of sound [m/s]	viscosity [mPa·s]
293.15 K, x2 = 0	773.35	1357.4	3.408
293.15 K, x2 = 0.1	773.9	1349.6	3.204
293.15 K, x2 = 0.2	774.92	1343.3	3.109
293.15 K, x2 = 0.3	776.24	1336.8	2.998
293.15 K, x2 = 0.4	777.91	1329.7	2.935
293.15 K, x2 = 0.5	780.07	1322	2.9
293.15 K, x2 = 0.6	782.88	1313.4	2.854
293.15 K, x2 = 0.7	786.53	1303.1	2.874
293.15 K, x2 = 0.8	791.49	1290.7	2.875
293.15 K, x2 = 0.9	798.54	1275.4	2.856
298.15 K, x2 = 0	769.87	1338.5	3.035
298.15 K, x2 = 0.1	770.35	1330.6	2.852
298.15 K, x2 = 0.2	771.34	1324.4	2.77
298.15 K, x2 = 0.3	772.63	1317.9	2.675
298.15 K, x2 = 0.4	774.28	1310.8	2.616
298.15 K, x2 = 0.5	776.41	1303.2	2.578
298.15 K, x2 = 0.6	779.18	1294.7	2.535
298.15 K, x2 = 0.7	782.81	1284.7	2.543
298.15 K, x2 = 0.8	787.73	1272.7	2.541
298.15 K, x2 = 0.9	794.77	1257.8	2.52
303.15 K, x2 = 0	766.4	1319.8	2.708
303.15 K, x2 = 0.1	766.82	1311.8	2.544
303.15 K, x2 = 0.2	767.77	1305.6	2.471
303.15 K, x2 = 0.3	769.03	1299.1	2.387
303.15 K, x2 = 0.4	770.64	1292.1	2.332
303.15 K, x2 = 0.5	772.74	1284.6	2.294
303.15 K, x2 = 0.6	775.47	1276.2	2.249
303.15 K, x2 = 0.7	779.07	1266.4	2.246
303.15 K, x2 = 0.8	783.97	1254.7	2.244
303.15 K, x2 = 0.9	790.97	1240.2	2.219
308.15 K, x2 = 0	762.95	1301.3	2.432
308.15 K, x2 = 0.1	763.28	1293.2	2.283
308.15 K, x2 = 0.2	764.19	1287	2.217
308.15 K, x2 = 0.3	765.42	1280.5	2.144
308.15 K, x2 = 0.4	766.99	1273.5	2.092
308.15 K, x2 = 0.5	769.05	1266.1	2.053
308.15 K, x2 = 0.6	771.75	1257.8	2.012
308.15 K, x2 = 0.7	775.31	1248.2	2.001
308.15 K, x2 = 0.8	780.17	1236.8	1.992
308.15 K, x2 = 0.9	787.14	1222.8	1.967
313.15 K, x2 = 0	759.49	1283.1	2.199
313.15 K, x2 = 0.1	759.74	1274.9	2.064
313.15 K, x2 = 0.2	760.61	1268.5	2.004
313.15 K, x2 = 0.3	761.8	1262.1	1.939
313.15 K, x2 = 0.4	763.33	1255.1	1.89
313.15 K, x2 = 0.5	765.35	1247.7	1.851
313.15 K, x2 = 0.6	768.01	1239.6	1.811
313.15 K, x2 = 0.7	771.52	1230.1	1.794
313.15 K, x2 = 0.8	776.34	1219	1.781
313.15 K, x2 = 0.9	783.27	1205.5	1.755
318.15 K, x2 = 0	756.05	1265	1.996
318.15 K, x2 = 0.1	756.2	1256.7	1.871
318.15 K, x2 = 0.2	757.02	1250.3	1.815
318.15 K, x2 = 0.3	758.17	1243.8	1.756
318.15 K, x2 = 0.4	759.66	1236.9	1.709
318.15 K, x2 = 0.5	761.63	1229.5	1.67
318.15 K, x2 = 0.6	764.24	1221.4	1.631
318.15 K, x2 = 0.7	767.71	1212.1	1.613
318.15 K, x2 = 0.8	772.49	1201.3	1.593
318.15 K, x2 = 0.9	779.38	1188.2	1.564
323.15 K, x2 = 0	752.61	1247.1	1.823
323.15 K, x2 = 0.1	752.66	1238.6	1.707
323.15 K, x2 = 0.2	753.42	1232.1	1.654
323.15 K, x2 = 0.3	754.53	1225.7	1.6
323.15 K, x2 = 0.4	755.97	1218.8	1.556
323.15 K, x2 = 0.5	757.89	1211.4	1.517
323.15 K, x2 = 0.6	760.45	1203.4	1.479
323.15 K, x2 = 0.7	763.86	1194.2	1.452
323.15 K, x2 = 0.8	768.59	1183.6	1.435
323.15 K, x2 = 0.9	775.44	1171	1.404
328.15 K, x2 = 0	749.18	1229.3	1.671
328.15 K, x2 = 0.1	749.13	1220.8	1.563
328.15 K, x2 = 0.2	749.82	1214.2	1.514
328.15 K, x2 = 0.3	750.87	1207.7	1.464
328.15 K, x2 = 0.4	752.26	1200.8	1.422
328.15 K, x2 = 0.5	754.13	1193.4	1.383
328.15 K, x2 = 0.6	756.63	1185.4	1.346
328.15 K, x2 = 0.7	759.99	1176.4	1.317
328.15 K, x2 = 0.8	764.66	1166	1.297
328.15 K, x2 = 0.9	771.46	1153.8	1.264
333.15 K, x2 = 0	745.74	1211.8	1.537
333.15 K, x2 = 0.1	745.58	1203.1	1.437
333.15 K, x2 = 0.2	746.2	1196.3	1.389
333.15 K, x2 = 0.3	747.19	1189.8	1.343
333.15 K, x2 = 0.4	748.53	1182.9	1.303
333.15 K, x2 = 0.5	750.34	1175.6	1.266
333.15 K, x2 = 0.6	752.78	1167.6	1.23
333.15 K, x2 = 0.7	756.08	1158.7	1.199
333.15 K, x2 = 0.8	760.69	1148.5	1.177
333.15 K, x2 = 0.9	767.42	1136.6	1.143
338.15 K, x2 = 0	742.31	1194.4	1.421
338.15 K, x2 = 0.1	742.04	1185.5	1.328
338.15 K, x2 = 0.2	742.57	1178.7	1.282
338.15 K, x2 = 0.3	743.51	1172.1	1.238
338.15 K, x2 = 0.4	744.78	1165.2	1.2
338.15 K, x2 = 0.5	746.53	1157.9	1.163
338.15 K, x2 = 0.6	748.9	1149.9	1.127
338.15 K, x2 = 0.7	752.13	1141	1.095
338.15 K, x2 = 0.8	756.66	1131	1.071
338.15 K, x2 = 0.9	763.33	1119.5	1.036
343.15 K, x2 = 0	738.88	1177.5	1.316
343.15 K, x2 = 0.1	738.5	1168.3	1.23
343.15 K, x2 = 0.2	738.94	1161.2	1.185
343.15 K, x2 = 0.3	739.8	1154.6	1.144
343.15 K, x2 = 0.4	741.01	1147.7	1.107
343.15 K, x2 = 0.5	742.68	1140.3	1.071
343.15 K, x2 = 0.6	744.98	1132.3	1.037
343.15 K, x2 = 0.7	748.13	1123.5	1.004
343.15 K, x2 = 0.8	752.59	1113.6	0.9782
343.15 K, x2 = 0.9	759.19	1102.4	0.9425

From the NIST ThermoML archive (doi:10.1016/j.fluid.2018.05.028)
